# Results published in PMC5653977 (EMBO Molecular Medicine, 2017).
# Counter-ions that a name gives are not always drawn.
# Tested on: NRG1-ERBB4 signaling
# Experiment: Nrg1-ERBB4-PIK3R1 split TEV co-culture compound screen of the NIH Clinical Collection
# Format: cell-based, human
# Conditions: NIH Clinical Collection NCC-003 raw data; compounds ranked by Z-score; 'flagged' given instead of a Z-score
row,Structure (SMILES),Z-SCORE
1,COCc1c(C(C)C)nc(C(C)C)c(/C=C/[C@@H](O)C[C@@H](O)CC(=O)[O-])c1-c1ccc(F)cc1.[Na+] [CERIVASTATIN Na],flagged
2,CC(C)/N=c1\cc2n(-c3ccc(Cl)cc3)c3ccccc3nc-2cc1Nc1ccc(Cl)cc1 [CLOFAZIMINE],flagged
3,COc1ccccc1OCCNCC(O)COc1cccc2[nH]c3ccccc3c12 (centres unmarked) [Carvedilol],-1.89
4,CC1=C(C(=O)O)N2C(=O)[C@@H](NC(=O)[C@H](N)c3ccccc3)[C@H]2SC1 [Cephalexin monohydrate],-1.51

# Same assay, conditions: compound screen of the NIH Clinical Collection, sheet raw data NCC-003; compounds ranked by Z-score
row,Structure (SMILES),Z-SCORE
1,COCC1=C(C(=O)OC(C)OC(=O)OC(C)C)N2C(=O)[C@@H](NC(=O)/C(=N\OC)c3csc(N)n3)[C@H]2SC1 (some centres unmarked) [CEFPODOXIME PROXETIL],0.53
2,NC[C@H]1CC[C@H](C(=O)Oc2ccc(CCC(=O)O)cc2)CC1 [CETRAXATE HCl],0.04
3,CN1CCN(c2nc3cc(C(F)(F)F)ccc3n3cccc23)CC1.O=C(O)/C=C\C(=O)O.O=C(O)/C=C\C(=O)O [CGS 12066B],0.3
4,"Nc1nc2ccc(Cl)cc2c2nc(-c3ccco3)nn12 [CGS 15943, reference compound]",6.59
5,CNC1=Nc2ccc(Cl)cc2C(c2ccccc2)=[N+]([O-])C1 [CHLORDIAZEPOXIDE],0.41
6,CC[C@H]1OC(=O)[C@H](C)[C@@H](O[C@H]2C[C@@](C)(OC)[C@@H](O)[C@H](C)O2)[C@H](C)[C@@H](O[C@@H]2O[C@H](C)C[C@H](N(C)C)[C@H]2O)[C@](C)(OC)C[C@@H](C)C(=O)[C@H](C)[C@@H](O)[C@]1(C)O [CLARITHROMYCIN],0.55
7,Clc1ccccc1C(c1ccccc1)(c1ccccc1)n1ccnc1 [CLOTRIMAZOLE],-0.73
8,C[C@]12C[C@H](O)[C@H]3[C@@H](CCC4=CC(=O)CC[C@@]43C)[C@@H]1CC[C@@H]2C(=O)CO [CORTICOSTERONE],0.4
9,C[C@]12CCC(=O)C=C1CC[C@@H]1[C@@H]2C(=O)C[C@@]2(C)[C@H]1CC[C@]2(O)C(=O)CO [CORTISONE],0.26
10,COc1cc(CNC(=O)CCCC/C=C/C(C)C)ccc1O [Capsaicin],-0.46

# Same assay, conditions: compounds at 10 μM, 24 h; PC12 split TEV assay cells co-cultured with Nrg1-expressing PC12 cells; analysed with cellHTS2
row,Structure (SMILES),Z-SCORE
1,"O=C(O)CCCc1ccc(N(CCCl)CCCl)cc1 [CHLORAMBUCIL, reference compound]",0.14
2,"CCC(=O)O[C@]1(C(=O)CCl)[C@@H](C)C[C@H]2[C@@H]3CCC4=CC(=O)C=C[C@]4(C)[C@@]3(F)[C@@H](O)C[C@@]21C [CLOBETASOL PROPIONATE, reference compound]",-2.64
3,"CC(=O)OCC(=O)[C@@]1(O)CC[C@H]2[C@@H]3CCC4=CC(=O)CC[C@]4(C)[C@H]3C(=O)C[C@@]21C [CORTISONE ACETATE, reference compound]",0.08
4,"NC(=O)N1c2ccccc2C=Cc2ccccc21 [Carbamazepine, reference compound]",-0.83
5,"CN(C)CCOC(c1ccc(Cl)cc1)c1ccccn1 (centres unmarked) [Carbinoxamine Maleate, reference compound]",-0.31
6,"COC(=O)C1=C(C)NC(C)=C(C(=O)OCCN(C)Cc2ccccc2)C1c1cccc([N+](=O)[O-])c1 (centres unmarked) [Cardene, reference compound]",-1.07
7,"CCCC(C)(COC(N)=O)COC(=O)NC(C)C (centres unmarked) [Carisoprodol, reference compound]",-0.82
8,"CO/N=C(\C(=O)N[C@@H]1C(=O)N2C(C(=O)O)=C(COC(N)=O)CS[C@H]12)c1ccco1 [Cefuroxime, reference compound]",0.08
9,"Cc1ccc(-c2cc(C(F)(F)F)nn2-c2ccc(S(N)(=O)=O)cc2)cc1 [Celecoxib, reference compound]",-0.36
10,"O=C(O)COCCN1CCN(C(c2ccccc2)c2ccc(Cl)cc2)CC1 (centres unmarked) [Cetirizine, reference compound]",0.89
11,"O=C(N[C@H](CO)[C@H](O)c1ccc([N+](=O)[O-])cc1)C(Cl)Cl [Chloramphenicol, reference compound]",0.74
12,"NS(=O)(=O)c1cc2c(cc1Cl)N=CNS2(=O)=O [Chlorothiazide, reference compound]",0.42
